Assays:
dog pancreatic α-amylase = assay: α-amylase inhibitory activity (starch-iodine absorbance); type: biochemical; conditions: beagle dog pancreas enzyme, starch substrate, 37° C., pH=7.0; read-out: inhibitory activity (IC50 value) against the dog pancreatic α-amylase
Experimental: (§1) The solutions of pancreatic α-amylases of mouse, rat, dog and monkey were prepared from the pancreases of an ICR mouse (male, 8 weeks old, purchased from SLC Japan, Inc.), an SD rat (male, 8 weeks old, purchased from Charles River Laboratories Japan, Inc.), a beagle dog (male, 35 months old, purchased from Narc Corp.), and a cynomolgus monkey (male, 10 years old, purchased from CLEA Japan, Inc.). The solutions of α-amylases from human saliva and pancreas were prepared from the enzymes purchased from Sigma-Aldrich Co. These α-amylase solutions were all diluted to 800 U/mL using an assay buffer (48 mM NaCl, 5.4 mM KCl, 28 mM Na2HPO4, 43 mM NaH2PO4, 35 mM mannitol, pH=7.0). The various α-amylase solutions (20 U, 25 μL) and the compounds dissolved in the assay buffer (25 μL) were added to a 96-well microplate, and the microplate was incubated at 37° C. for 10 minutes. Subsequently, a starch solution (5 mg/mL, 50 μL) was added thereto, and the microplate was incubated at 37° C. for 10 minutes. A 0.33 M perchloric acid solution (50 μL) was added to the microplate to terminate the enzymatic reaction, and then a 0.01 M iodine solution (50 μL) was added thereto to color the solutions. The absorbance (660 nm) of each of the solutions was measured. The concentration of the compound inhibiting 50% of the α-amylase activity was calculated as the IC50 value.

[1] = target: T1, human pancreatic α-amylase (Homo sapiens, UniProt P04746); assay: as above; type: biochemical; conditions: enzyme from Sigma-Aldrich, starch substrate, 37° C., pH=7.0; read-out: inhibitory activity (IC50 value) against the human pancreatic α-amylase
T1 construct: The solutions of α-amylases from human saliva and pancreas were prepared from the enzymes purchased from Sigma-Aldrich Co; purchased Sigma-Aldrich Co; host or cells: human pancreas
T1 sequence (P04746 16-511): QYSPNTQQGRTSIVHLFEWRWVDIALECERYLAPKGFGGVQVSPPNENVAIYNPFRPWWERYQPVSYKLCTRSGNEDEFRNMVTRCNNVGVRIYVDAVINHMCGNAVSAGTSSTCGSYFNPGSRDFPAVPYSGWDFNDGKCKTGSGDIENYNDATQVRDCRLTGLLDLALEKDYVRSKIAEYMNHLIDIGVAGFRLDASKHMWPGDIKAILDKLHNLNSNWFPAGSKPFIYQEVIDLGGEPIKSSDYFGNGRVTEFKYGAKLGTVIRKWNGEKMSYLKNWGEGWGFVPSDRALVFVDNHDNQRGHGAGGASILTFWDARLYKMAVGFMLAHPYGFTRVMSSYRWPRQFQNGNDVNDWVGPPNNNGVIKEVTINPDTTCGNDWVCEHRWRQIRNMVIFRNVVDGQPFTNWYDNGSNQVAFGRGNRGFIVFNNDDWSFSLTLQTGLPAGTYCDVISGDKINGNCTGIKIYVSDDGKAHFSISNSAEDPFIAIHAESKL
Experimental: as §1

human saliva α-amylase = target: T2, human saliva α-amylase (Homo sapiens, UniProt P0DUB6); assay: as above; type: biochemical; conditions: enzyme from Sigma-Aldrich, starch substrate, 37° C., pH=7.0; read-out: inhibitory activity (IC50 value) against the human saliva α-amylase
T2 construct: The solutions of α-amylases from human saliva and pancreas were prepared from the enzymes purchased from Sigma-Aldrich Co; purchased Sigma-Aldrich Co; host or cells: human saliva
T2 sequence (P0DUB6 16-511): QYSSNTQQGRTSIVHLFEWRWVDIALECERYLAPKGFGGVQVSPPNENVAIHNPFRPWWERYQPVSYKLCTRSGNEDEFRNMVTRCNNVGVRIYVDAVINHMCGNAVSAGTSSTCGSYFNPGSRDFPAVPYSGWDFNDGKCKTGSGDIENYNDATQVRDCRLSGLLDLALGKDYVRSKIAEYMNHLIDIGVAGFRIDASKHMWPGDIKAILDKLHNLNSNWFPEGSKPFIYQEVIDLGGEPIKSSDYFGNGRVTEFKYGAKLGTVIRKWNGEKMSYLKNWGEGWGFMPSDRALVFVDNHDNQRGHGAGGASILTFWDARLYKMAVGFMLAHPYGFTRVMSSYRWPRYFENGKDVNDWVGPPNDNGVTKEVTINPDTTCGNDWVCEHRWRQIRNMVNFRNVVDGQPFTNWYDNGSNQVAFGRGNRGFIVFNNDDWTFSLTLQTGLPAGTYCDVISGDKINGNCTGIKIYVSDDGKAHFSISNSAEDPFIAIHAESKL
Experimental: as §1

[2] = target: monkey pancreatic α-amylase; assay: as above; type: biochemical; conditions: cynomolgus monkey pancreas enzyme, starch substrate, 37° C., pH=7.0; read-out: inhibitory activity (IC50 value) against the monkey pancreatic α-amylase
Experimental: as §1

[3] = target: T3, mouse pancreatic α-amylase (Mus musculus, UniProt P00688); assay: as above; type: biochemical; conditions: read-out: inhibitory activity (IC50 value) against the mouse pancreatic α-amylase; ICR mouse pancreas enzyme, starch substrate, 37° C., pH=7.0
T3 construct: prepared from the pancreases of an ICR mouse; from tissue; host or cells: pancreas of ICR mouse (male, 8 weeks old, SLC Japan)
T3 sequence (P00688 16-508): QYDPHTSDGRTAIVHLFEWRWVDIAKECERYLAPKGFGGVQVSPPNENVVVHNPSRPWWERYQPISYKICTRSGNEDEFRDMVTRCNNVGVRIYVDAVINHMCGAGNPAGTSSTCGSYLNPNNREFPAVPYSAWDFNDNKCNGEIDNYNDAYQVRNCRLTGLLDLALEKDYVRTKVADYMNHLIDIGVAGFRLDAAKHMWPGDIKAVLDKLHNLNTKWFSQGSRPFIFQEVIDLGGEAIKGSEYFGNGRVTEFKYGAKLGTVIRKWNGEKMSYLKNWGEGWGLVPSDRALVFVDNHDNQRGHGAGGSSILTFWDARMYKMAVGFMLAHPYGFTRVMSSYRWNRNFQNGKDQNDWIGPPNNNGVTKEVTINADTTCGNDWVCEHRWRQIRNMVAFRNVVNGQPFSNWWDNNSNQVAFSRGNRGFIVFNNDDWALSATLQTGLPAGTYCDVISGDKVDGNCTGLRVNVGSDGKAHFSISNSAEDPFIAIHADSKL
Experimental: as §1

rat pancreatic α-amylase = target: T4, rat pancreatic α-amylase (Rattus norvegicus, UniProt P00689); assay: as above; type: biochemical; conditions: read-out: inhibitory activity (IC50 value) against the rat pancreatic α-amylase; SD rat pancreas enzyme, starch substrate, 37° C., pH=7.0
T4 construct: The solutions of pancreatic α-amylases of mouse, rat, dog and monkey were prepared from the pancreases; from tissue; host or cells: pancreas of SD rat (male, 8 weeks old, Charles River Laboratories Japan)
T4 sequence (P00689 16-508): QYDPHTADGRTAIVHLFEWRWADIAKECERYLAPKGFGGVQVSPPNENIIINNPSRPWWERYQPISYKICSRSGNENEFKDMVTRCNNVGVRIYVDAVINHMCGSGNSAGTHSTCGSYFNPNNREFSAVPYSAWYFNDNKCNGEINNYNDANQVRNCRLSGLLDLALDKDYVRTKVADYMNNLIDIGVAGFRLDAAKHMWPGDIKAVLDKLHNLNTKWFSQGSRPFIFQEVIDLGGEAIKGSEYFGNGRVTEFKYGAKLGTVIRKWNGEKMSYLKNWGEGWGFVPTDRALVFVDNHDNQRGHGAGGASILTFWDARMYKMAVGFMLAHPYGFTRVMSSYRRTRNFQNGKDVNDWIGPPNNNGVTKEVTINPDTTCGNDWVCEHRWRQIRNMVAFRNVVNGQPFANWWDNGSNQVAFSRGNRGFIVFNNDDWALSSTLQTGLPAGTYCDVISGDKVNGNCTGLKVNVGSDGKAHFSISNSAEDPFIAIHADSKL
Experimental: as §1

Male ICR (normal) mice = assay: oral activity under a load of carbohydrates (blood glucose and plasma insulin); type: in vivo, mouse
Experimental: Male ICR (normal) mice (6 weeks old, purchased from SLC Japan, Inc.) were used for the animal. The compound was prepared into a solution using a 0.5% methylcellulose solution. Blood was collected from a mouse which had been fasted overnight, for the measurement of the blood glucose level and the blood plasma insulin level, and the mouse was orally administered with a solvent or the compound A (0.3, 1, 3, 10 mg/kg), immediately followed by oral administration of a carbohydrate solution (75 mg/mL starch, 25 mg/mL sucrose, 20 mL/kg). Subsequently, blood was collected 0.25, 0.5 and 1 hour after the oral administration, for the measurement of the blood plasma insulin level, and blood was collected 0.5, 1 and 2 hours after the oral administration, for the measurement of the blood glucose level.
The blood glucose level was measured by using Glucose CH-test Wako reagent (Wako Pure Chemical Industry, Ltd.), and the blood plasma insulin concentration was measured by using a Mouse Insulin ELISA Kit (Shibayagi Co., Ltd.). The test results are indicated in the average ±standard error.
The area-under-curve (AUC) of the blood glucose level-time curve was calculated from the blood glucose level for the time period up to 2 hours from the administration of the compound, and the AUC of the plasma insulin level-time curve was calculated from the blood plasma insulin level for the time period up to 1 hour from the administration of the compound. A statistical analysis was performed between the solvent-administered group and the compound A-administered group by using Dunnett's multiple range test, and a critical rate of less than 5% was defined as significant.

[4] = Solubility (physicochemical properties)

Compound	IC50 (dog pancreatic α-amylase) [nM]	IC50 [1] [nM]	IC50 (human saliva α-amylase) [nM]	IC50 [2] [nM]	IC50 [3] [nM]	IC50 (rat pancreatic α-amylase) [nM]	blood glucose elevation suppressive action (Male ICR (normal) mice; oral administration 0.3 to 10 mg/kg, fasted ICR mice, carbohydrate load (starch + sucrose), glucose up to 2 hours, FIG. 7)	plasma insulin level lowering action (Male ICR (normal) mice; oral administration 0.3 to 10 mg/kg, fasted ICR mice, carbohydrate load, insulin up to 1 hour, FIG. 8)	dose at which the blood glucose elevation suppressive action was significant (Male ICR (normal) mice; oral, ICR mice, carbohydrate load, Dunnett's test vs solvent group) [mg/kg]	Solubility in acetone, MeOH, EtOH and MeCN [4]	Solubility in water, DMF and DMSO [4]
CC1OC(OC2C(CO)OC(OC3C(CO)=CC(NC4C(C)OC(OC5C(CO)OC(OC6C(CO)=CC(NC7C(C)OC(OC8C(CO)OC(OC9C(CO)=CC(NC%10C(C)OC(OC%11C(CO)OC(OC%12C(CO)OC(OC%13C(CO)OC(OC%14OC(CO)C(O)C(O)C%14O)C(O)C%13O)C(O)C%12O)C(O)C%11O)C(O)C%10O)C(O)C9O)C(O)C8O)C(O)C7O)C(O)C6O)C(O)C5O)C(O)C4O)C(O)C3O)C(O)C2O)C(O)C(O)C1NC1C=C(CO)C(O)C(O)C1O (stereo not drawn) [compound A]	2.06	2.02	2.2	2.14	1.9	2.01	dose-dependent blood glucose elevation suppressive action was recognized	dose-dependent, significant plasma insulin level lowering action was also recognized	≥ 1	slightly soluble	highly soluble
CC1OC(OC2C(CO)OC(OC3C(CO)=CC(NC4C(C)OC(OC5C(CO)OC(OC6C(CO)=CC(NC7C(C)OC(OC8C(CO)OC(OC9C(CO)=CC(NC%10C(C)OC(OC%11C(CO)OC(OC%12C(CO)=CC(NC%13C(C)OC(OC%14C(CO)OC(OC%15C(CO)OC(OC%16C(CO)OC(OC%17OC(CO)C(O)C(O)C%17O)C(O)C%16O)C(O)C%15O)C(O)C%14O)C(O)C%13O)C(O)C%12O)C(O)C%11O)C(O)C%10O)C(O)C9O)C(O)C8O)C(O)C7O)C(O)C6O)C(O)C5O)C(O)C4O)C(O)C3O)C(O)C2O)C(O)C(O)C1NC1C=C(CO)C(O)C(O)C1O (stereo not drawn) [compound B]	2.38	2.11	1.87	1.9	2.06	2.12				slightly soluble	highly soluble
CC1OC(OC2C(CO)OC(OC3C(CO)=CC(NC4C(C)OC(OC5C(CO)OC(OC6C(CO)=CC(NC7C(C)OC(OC8C(CO)OC(OC9C(CO)=CC(NC%10C(C)OC(OC%11C(CO)OC(OC%12C(CO)=CC(NC%13C(C)OC(OC%14C(CO)OC(OC%15C(CO)=CC(NC%16C(C)OC(OC%17C(CO)OC(OC%18C(CO)OC(OC%19C(CO)OC(OC%20OC(CO)C(O)C(O)C%20O)C(O)C%19O)C(O)C%18O)C(O)C%17O)C(O)C%16O)C(O)C%15O)C(O)C%14O)C(O)C%13O)C(O)C%12O)C(O)C%11O)C(O)C%10O)C(O)C9O)C(O)C8O)C(O)C7O)C(O)C6O)C(O)C5O)C(O)C4O)C(O)C3O)C(O)C2O)C(O)C(O)C1NC1C=C(CO)C(O)C(O)C1O (stereo not drawn) [compound C]	2.07	2.21	1.99	2.02	1.73	1.95				slightly soluble	highly soluble

From patent US20110105420A1, “AMINOSUGAR COMPOUND AND PROCESS FOR PRODUCTION THEREOF” (Astellas Pharma Inc., priority 2008, published 2011)
